Assay results reported in patent US9642897B2, “Treatment of bone diseases” (THE UNIVERSITY OF SYDNEY, priority 2011, dated 2017).
“Also recorded” adds a separate entry of the source.

Key:
[1] = Therapeutic safety of oral PA: weight, water consumption, survival; type: in vivo, C57BL/6 mice; settings: for Weight: after 6 weeks; for Water left: initial volume 500 mL, weekly average
Protocol: (§1) Nine-month-old oophorectomised (OVX) and SHAM-operated C57BL/6 mice (n=24 per group) were obtained from the Animal Resources Centre (Perth, Wash.). After 2 weeks of acclimation, mice were divided into four groups (Table 2) and received treatment in their drinking water for a total of 6 weeks. Mice treated with plain water were used as controls. Mice were housed in cages in a limited access room.
Water left in the bottle (initial volume of 500 mL) was also quantified every week. […] These volumes correspond with the drinking pattern previously reported in this mouse model. (iii) Effect of Oral PA on Mineral Absorption in OVX Mice

Runx2 and OCN = experiment: RT-PCR of Runx2 and OCN in bone marrow cells of PA-treated mice; type: in vivo, C57BL/6 mice; settings: all PA-treated groups vs vehicle
Protocol: Bone marrow cells were flushed and isolated as previously described. Total RNA was extracted from marrow cells using a QIAGEN RNeasy Mini extraction kit following manufacturer's instructions (QIAGEN Pty, Doncaster, VIC, Australia; cat#74104). First strand complementary DNA (cDNA) synthesis was performed using 200 ng of total RNA, 50 ng random hexamers and 50 units reverse transcriptase at 42° C. for 1 hour, as described by manufacturer (Bioline Australia Pty, Alexandria, NSW, Australia; cat# BIO-65025). Real-time PCR for expressed genes as markers for osteogenesis was performed in duplicate in a total reaction volume of 25 μl, 10% of which was cDNA (or water for non-template control), 3 mM MgCl2 and 250 nM of each forward and reverse specific primer for target genes and normalizer. Primers for specific detection of mRNA expression included: […]
All PCRs were performed in a Corbett Rotor-Gene™ 3000 (QIAGEN Pty) using SYBR green with no-ROX reaction mix and a standard thermal profile as described by supplier (Bioline Australia Pty, Alexandria, NSW, Australia; cat# QT6750-02). Quantitative RT-PCR data was defined by threshold cycle (Ct) normalized for the housekeeping gene glyceraldehyde-3-phosphate dehydrogenase (GAPDH): […]

[2] = Pharmacokinetics of oral PA: serum concentrations by GC-MS; type: in vivo, C57BL/6 mice
Description: as §1
For absorption analysis of minerals in the duodenum, tissue was dissected and left to dry up in room temperature. 100 mg of tissue were dissolved in nitric acid and concentrations of nine minerals was quantified in the tissue homogenates using an Agilent 5973 mass selective detector via an auto-sampler Agilent Technologies 7683, and controlled using Agilent ChemStation software (Agilent, Santa Clara, Calif., USA). For pharmacokinetic analysis of PA, serum of Pa- and vehicle-treated animals was obtained by centrifugation. 1 μl of serum was injected into an Agilent 6890 gas chromato-graph, interfaced to an Agilent 5973 mass selective detector via an auto-sampler Agilent Technologies 7683, and controlled using Agilent ChemStation software (Agilent, Santa Clara, Calif., USA).

[3] = tested on: OVX C57BL/6 mice (osteoporosis model); experiment: Bone histology and dynamic histomorphometry in Sham and OVX mice; type: in vivo
Description: as §1
For dynamic histomorphometry, tetracycline labelling was achieved through the intraperitoneal injection of demeclocycline (20 mg/kg) (Sigma Chemicals, St. Louis, Mo., USA) to the three treated groups at 5 and 2 days before sacrifice. One side femur from each animal in each group was removed at the time of killing, fixed in 70% ethanol, dehydrated, and embedded undecalcified in methylmethacrylate (J-T Baker, Phillipsburg, N.J., USA). At 50 μm intervals, longitudinal sections of 5 and 8 μm thick were cut using a polycut-E microtome (Reichert-Jung Leica, Heerbrugg, Switzerland), placed on gelatine-coated glass slides, deplastified and stained with Goldner's trichrome. Histomorphometry was done with a semi-automatic image analysing system combining a microscope equipped with a camera lucida and digitizing tablet linked to a computer using the OsteoMeasure Software (Osteometrics Inc., Decatur, Ga., USA). Nomenclature and abbreviations of histomorphometric parameters follow the recommendations of the American Society of Bone and Mineral Research (see Parfitt et al. (1987), “Bone histomorphometry: Standardization of nomenclature, symbols and units”, J Bone Miner Res., 2: 595-610.)

[4] = tested on: mesenchymal stem cells (MSC); experiment: Mineralization (alizarin red staining) of osteogenic differentiating MSC; type: cell-based, human; settings: MSC in OIM, 2 weeks
Protocol: Human mesenchymal stem cells (MSC) (BioWhittaker, Walkersville, Md., USA) were plated at a density of 5×10^5 cells per well in 150 cm^2 dishes containing MSC growth medium (GM) (BioWhittaker, Walkersville, Md., USA) with 10% fetal calf serum (FCS) and incubated at 37° C. After the cells reached 60% confluence, media was replaced with either GM or osteoblastogenesis induction media (OIM) (prepared with MSCGM, 10% FCS, […] dexamethasone, 10 mmol/L β glycerol phosphate and 50 μg/mL ascorbic acid) for 21 days. Media was changed every three days. Media obtained at the beginning of the 1st, 2nd and 3rd wk of differentiation as well as conditioned media were collected for measurement of IFNγ. Concentrations of IFNγ in the conditioned media were measured from both GM and OM treated cells using Human […] DuoSet ELISA Development Kit (R&D Systems, Minneapolis, Mich., USA). To compare between the osteogenic and the immune effect of IFNγ, Jurkat cells and human T lymphocytes were plated at a density of 5×10^5 cells per well in 150 cm^2 dishes containing RPMI media.
Subsequently, the effect of chemical inhibition/stimulation of the intermediate and end products of kynurenine activation on osteogenic differentiating MSC was then characterised.
These compounds were added to the MSC media on day one of differentiation. Cells were treated for […]. Media was changed every three days. After three weeks of treatment, osteoblastogenesis and changes in osteogenic genes were quantified as described above.

Work on `O=C(O)c1ccccn1` [PA, pyridine-2-carboxylic acid] yielded a Weight ([1]; OVX, PA250 (250 mg/kg/d)) of 26 ± 1.6 gm, a Water left ([1]; OVX, PA250) of 195 ± 28 ml/week and a Weight ([1]; OVX, PA500 (500 mg/kg/d)) of 28 ± 0.4 gm. The Water left ([1]; OVX, PA500) was 195 ± 35 ml/week, the Weight ([1]; OVX, PA1000 (1 gm/kg/d)) was 26 ± 1.3 gm and the Water left ([1]; OVX, PA1000) was 250 ± 38 ml/week. For the same molecule, the Weight ([1]; Sham, PA250 (250 mg/kg/d)) was 27 ± 2.0 gm, the Water left ([1]; Sham, PA250) was 200 ± 32 ml/week and the Weight ([1]; Sham, PA500 (500 mg/kg/d)) was 26 ± 2.4 gm. The Water left ([1]; Sham, PA500) was 155 ± 35 ml/week, the Weight ([1]; Sham, PA1000 (1 gm/kg/d)) was 26 ± 1.3 gm and the Water left ([1]; Sham, PA1000) was 260 ± 45 ml/week. The mice survival rate ([1]; female, C57BL/6, mouse, in vivo, po, 6 weeks) was 100%, the side effects ([1]; oral PA 6 weeks) was “no evidence of side effects” and the “weight and water consumption vs vehicle-treated controls” value ([1]; oral PA 6 weeks) was “no difference”. For the same molecule, the “mRNA levels of osteogenic genes Runx2 and OCN” value (Runx2 and OCN) was “higher levels”, the “serum concentrations of PA at higher dose” value ([2]; higher dose vs 0.5 gm/Kg/d) was “not followed by higher serum concentrations” and the “serum concentrations of PA, OVX vs SHAM counterpart” value ([2]; low dose of PA) was “lower serum concentrations”. The “serum concentrations of PA” value ([2]; oral PA in drinking water, 6 weeks, Sham and OVX mice) was “increased in the treated groups in a dose-dependent manner”, the “bone turnover (fluorochrome double labelling)” value ([3]; Sham and OVX mice, oral PA 6 weeks) was “significant and dose-dependent increase in bone turnover” and the “mineral apposition rates (MAR)” value ([3]; trabecular and cortical bone, vs vehicle) was “increased mineral apposition rates”. For the same molecule, the “mineralized bone (Von Kossa labelling)” value ([3]; vs untreated controls) was “higher levels of mineralized bone” and the “osteoblastogenesis / mineralisation (alizarin red)” value [4] was “accelerated mineralisation; also recorded: stimulate osteoblastogenesis”.
